US20100234815A1, “STABLE MELT PROCESSABLE CHLORHEXIDINE COMPOSITIONS” (Teleflex Medical Incorporated, priority 2009, published 2010)

Assays:
Type in all cases: physicochemical
[1] = HPLC of chlorhexidine diacetate extracted from Tecothane-2095A compounded resin (thermal degradation on melt processing); settings: for 4.1 peak (CHA) / RRT 0.6 (degradant) / RRT 1.3 (degradant) / RRT 1.6 (degradant): Tecothane-2095A compounded resin
Text: Tecothane®-2095A was coated with 5% w/w polytetramethyleneoxide (PTMO) of molecular weight (MW)=1000 by mixing 45.1 gram (g) of PTMO with 900g Tecothane®-2095A. The PTMO coated resin and chlorhexidine diacetate were separately fed into an 18 millimeter (mm) Leistritz twin screw intermeshing extruder (Somerville, N.J.) from K-Tron feeders (Pitman, N.J.) at rates of 2.5 kilograms per hour (kg/hr) and 0.25 kg/hr, respectively. The extruder was set at 112 revolutions per minute (rpm) for screw speed and the barrel zone temperatures were set from 145° C. thru 178° C. The extrudate was pelletized into small pellets.
(§1) Chlorhexidine diacetate content of the prepared samples was extracted with 1:1 tetrahydrofuran (THF): H2O and analyzed on the Agilent Eclipse XDB-CN 5u 4.6×150 mm column with guard column. Briefly, 2 centimeter (cm) sample segments were extracted with 5 mL of THF and 5 mL of H2O, vortexed, and centrifuged. HPLC analysis was run on an Agilent Eclipse XDB-CN 5u 4.6×150 mm column and 4.6×12.5 mm Eclipse XDB-CN guard column, with a mixture of deionized water, acetonitrile, and trifluoroacetic acid as the mobile phase. Concentrations of the analytes were determined via calibration curves.
In addition to the experimental conditions described with reference to FIG. 2, chlorhexidine diacetate compounded in Tecothane 2095A was subjected to melt temperatures ranging from about 139° C. to about 172° C. and the concentration of the analytes was determined via a calibration curve as described in the following Table 1.

[2] = HPLC of chlorhexidine diacetate extracted from low melt temperature Tecoflex-93A compounded resin; settings: for 4.289 peak (CHA) / RRT 0.6 (degradant) / RRT 1.3 (degradant) / RRT 1.6 (degradant): low melt temperature (LMT) Tecoflex-93A
Experimental: Low melting temperature Tecoflex-93A and chlorhexidine diacetate were separately fed into al 8 mm Leistritz twin screw intermeshing extruder from K-tron feeders at rates of 1 kg/hr and 0.1 kg/hr, respectively. The barrel zone temperatures were set at 121° C. for all zones. The extrudate was pelletized into small pellets.
as §1
In addition to the experimental conditions described with reference to FIG. 3, chlorhexidine diacetate compounded in low melt temperature Tecoflex-93A was subjected to melt temperatures ranging from about 131° C. to about 137° C. The concentration of the analytes was determined via a calibration curve as described in the following Table 2.

[3] = HPLC of CHA extracted from co-extruded 7Fr single lumen tubing
Experimental: […] Co-extruded tubing was also analyzed for chlorhexidine degradants.
as §1

[4] = HPLC of CHA extracted from Versaflex CL30 compounded resin; settings: for 4.1 peak (CHA) / RRT 0.6 (degradant) / RRT 1.3 (degradant) / RRT 1.6 (degradant): Versaflex CL30 compounded resin
Experimental: Versaflex® CL30 and chlorhexidine diacetate were separately fed into an 18 mm Leistritz twin screw intermeshing extruder from K-tron feeders at rates of 2.5 kg/hr and 0.25 kg/hr, respectively. The barrel zone temperatures were set from 131° C. thru 148° C. The extrudate was pelletized into small pellets.
as §1

[5] = HPLC of CHA extracted from PVC compounded resin
Experimental: Separate samples of polyvinyl chloride (shore 65A and shore 85A respectively) and chlorhexidine diacetate were separately fed into an 18 mm Leistritz twin screw intermeshing extruder from K-tron feeders at rates of 2.0 kg/hr and 0.2 kg/hr, respectively. The barrel zone temperatures were set from 140° C. thru 155° C. The extrudate was pelletized into small pellets.
as §1
In addition to the experimental conditions described with reference to FIG. 7, chlorhexidine diacetate compounded in polyvinyl chloride (Shore A hardness of […] & 85) was subjected to melt temperatures ranging from about 145° C. to about 176° C. The concentration of the analytes was determined via a calibration curve as described in the following Table 6.

[6] = HPLC of chlorhexidine dodecanoate extracted from LMT Tecoflex-93A compounded resin; settings: for 4.289 peak (CHDD) / RRT 0.6 (degradant) / RRT 1.3 (degradant) / RRT 1.6 (degradant): LMT Tecoflex-93A compounded resin
[7] = co-extruded 7Fr single lumen, melt temp 135 °C (condition 1)
[8] = PVC 60A compounded resin, melt temp 145 °C (condition 1)
[9] = PVC 60A compounded resin, melt temp 154 °C (condition 2)
[10] = PVC 60A compounded resin, melt temp 159 °C (condition 3)
[11] = PVC 60A compounded resin, melt temp 165 °C (condition 4)
[12] = PVC 60A compounded resin, melt temp 171 °C (condition 5)
[13] = PVC 85A compounded resin, melt temp 155 °C (condition 1)
[14] = PVC 85A compounded resin, melt temp 159 °C (condition 2)
[15] = PVC 85A compounded resin, melt temp 163 °C (condition 3)
[16] = PVC 85A compounded resin, melt temp 167 °C (condition 4)
[17] = PVC 85A compounded resin, melt temp 170 °C (condition 5)
[18] = PVC 85A compounded resin, melt temp 176 °C (condition 6)

SMILES: CC(=O)O.CC(=O)O.NC(=N\CCCCCC/N=C(N)/N=C(\N)Nc1ccc(Cl)cc1)/N=C(\N)Nc1ccc(Cl)cc1 [CHA, chlorhexidine diacetate]
- 4.1 peak (CHA) ([1]; melt temp 139 °C (condition 1)): 89%
- RRT 0.6 (degradant) ([1]; melt temp 139 °C (condition 1)): 3%
- RRT 1.3 (degradant) ([1]; melt temp 139 °C (condition 1)): 8%
- RRT 1.6 (degradant) ([1]; melt temp 139 °C (condition 1)): 1%
- 4.1 peak (CHA) ([1]; melt temp 142 °C (condition 2)): 88%
- RRT 0.6 (degradant) ([1]; melt temp 142 °C (condition 2)): 3%
- RRT 1.3 (degradant) ([1]; melt temp 142 °C (condition 2)): 8%
- RRT 1.6 (degradant) ([1]; melt temp 142 °C (condition 2)): 1%
- 4.1 peak (CHA) ([1]; melt temp 144 °C (condition 3)): 84%
- RRT 0.6 (degradant) ([1]; melt temp 144 °C (condition 3)): 4%
- RRT 1.3 (degradant) ([1]; melt temp 144 °C (condition 3)): 11%
- RRT 1.6 (degradant) ([1]; melt temp 144 °C (condition 3)): 1%
- 4.1 peak (CHA) ([1]; melt temp 172 °C (condition 4)): 77%
- RRT 0.6 (degradant) ([1]; melt temp 172 °C (condition 4)): 7%
- RRT 1.3 (degradant) ([1]; melt temp 172 °C (condition 4)): 13%
- RRT 1.6 (degradant) ([1]; melt temp 172 °C (condition 4)): 3%
- thermal degradation on melt processing (HPLC, FIG. 2) ([1]; compounded in Tecothane 2095A, melt temperature 164 °C, 280 nm): degrades into several products
- thermal degradation on melt processing (HPLC, FIG. 3) ([2]; compounded in low melt temperature Tecoflex-93A, melt temperature 136 °C, 280 nm): did not degrade
- 4.289 peak (CHA) ([2]; melt temp 131 °C (condition 1)): 100
- RRT 0.6 (degradant) ([2]; melt temp 131 °C (condition 1)): Not detected
- RRT 1.3 (degradant) ([2]; melt temp 131 °C (condition 1)): Not detected
- RRT 1.6 (degradant) ([2]; melt temp 131 °C (condition 1)): Not detected
- 4.289 peak (CHA) ([2]; melt temp 137 °C (condition 2)): 100
- RRT 0.6 (degradant) ([2]; melt temp 137 °C (condition 2)): Non-detected
- RRT 1.3 (degradant) ([2]; melt temp 137 °C (condition 2)): Not detected
- RRT 1.6 (degradant) ([2]; melt temp 137 °C (condition 2)): Not detected
- stable processing temperature limit ([2]; with polyurethanes): about 137 °C
- 4.289 peak (CHA) [3, 7]: 100
- RRT 0.6 (degradant) [3, 7]: Not detected
- RRT 1.3 (degradant) [3, 7]: Not detected
- RRT 1.6 (degradant) [3, 7]: Not detected
- stable processing temperature limit ([3]; with polyurethanes, from Table 4 (co-extruded 7Fr single lumen)): at least 135 °C
- 4.1 peak (CHA) ([4]; melt temp 101 °C (condition 1)): 100
- RRT 0.6 (degradant) ([4]; melt temp 101 °C (condition 1)): Not detected
- RRT 1.3 (degradant) ([4]; melt temp 101 °C (condition 1)): Not detected
- RRT 1.6 (degradant) ([4]; melt temp 101 °C (condition 1)): Not detected
- 4.1 peak (CHA) ([4]; melt temp 121 °C (condition 2)): 100
- RRT 0.6 (degradant) ([4]; melt temp 121 °C (condition 2)): Not detected
- RRT 1.3 (degradant) ([4]; melt temp 121 °C (condition 2)): Not detected
- RRT 1.6 (degradant) ([4]; melt temp 121 °C (condition 2)): Not detected
- 4.1 peak (CHA) ([4]; melt temp 129 °C (condition 3)): 100
- RRT 0.6 (degradant) ([4]; melt temp 129 °C (condition 3)): Not detected
- RRT 1.3 (degradant) ([4]; melt temp 129 °C (condition 3)): Not detected
- RRT 1.6 (degradant) ([4]; melt temp 129 °C (condition 3)): Not detected
- 4.1 peak (CHA) ([4]; melt temp 139 °C (condition 4)): 100
- RRT 0.6 (degradant) ([4]; melt temp 139 °C (condition 4)): Not detected
- RRT 1.3 (degradant) ([4]; melt temp 139 °C (condition 4)): Not detected
- RRT 1.6 (degradant) ([4]; melt temp 139 °C (condition 4)): Not detected
- 4.1 peak (CHA) ([4]; melt temp 144 °C (condition 5)): 100
- RRT 0.6 (degradant) ([4]; melt temp 144 °C (condition 5)): Not detected
- RRT 1.3 (degradant) ([4]; melt temp 144 °C (condition 5)): Not detected
- RRT 1.6 (degradant) ([4]; melt temp 144 °C (condition 5)): Not detected
- 4.1 peak (CHA) ([4]; melt temp 149 °C (condition 6)): 100
- RRT 0.6 (degradant) ([4]; melt temp 149 °C (condition 6)): Not detected
- RRT 1.3 (degradant) ([4]; melt temp 149 °C (condition 6)): Not detected
- RRT 1.6 (degradant) ([4]; melt temp 149 °C (condition 6)): Not detected
- 4.1 peak (CHA) ([4]; melt temp 153 °C (condition 7)): 100
- RRT 0.6 (degradant) ([4]; melt temp 153 °C (condition 7)): Not detected
- RRT 1.3 (degradant) ([4]; melt temp 153 °C (condition 7)): Not detected
- RRT 1.6 (degradant) ([4]; melt temp 153 °C (condition 7)): Not detected
- 4.1 peak (CHA) ([4]; melt temp 161 °C (condition 8)): 100
- RRT 0.6 (degradant) ([4]; melt temp 161 °C (condition 8)): Not detected
- RRT 1.3 (degradant) ([4]; melt temp 161 °C (condition 8)): Not detected
- RRT 1.6 (degradant) ([4]; melt temp 161 °C (condition 8)): Not detected
- % Peak area (degradant) [5, 8]: Not detected
- % Peak area CHA [5, 8]: 100%
- % Peak area (degradant) [5, 9]: Not detected
- % Peak area CHA [5, 9]: 100%
- % Peak area (degradant) [5, 10]: Not detected
- % Peak area CHA [5, 10]: 100%
- % Peak area (degradant) [5, 11]: Not detected
- % Peak area CHA [5, 11]: 100%
- % Peak area (degradant) [5, 12]: 0.4%
- % Peak area CHA [5, 12]: 99.6%
- % Peak area (degradant) [5, 13]: Not detected
- % Peak area CHA [5, 13]: 100%
- % Peak area (degradant) [5, 14]: Not detected
- % Peak area CHA [5, 14]: 100%
- % Peak area (degradant) [5, 15]: Not detected
- % Peak area CHA [5, 15]: 100%
- % Peak area (degradant) [5, 16]: 0.4%
- % Peak area CHA [5, 16]: 99.6%
- % Peak area (degradant) [5, 17]: 0.3%
- % Peak area CHA [5, 17]: 99.7%
- % Peak area (degradant) [5, 18]: 0.7%
- % Peak area CHA [5, 18]: 99.3%
- thermal degradation on melt processing (HPLC, FIG. 5) ([5]; compounded in polyvinyl chloride (Shore A hardness of 65), melt temperature 145 °C, 280 nm): did not degrade
- thermal degradation on melt processing (HPLC, FIG. 6) ([5]; compounded in polyvinyl chloride (Shore A hardness of 85), melt temperature 155 °C, 280 nm): did not degrade
- amount of degradant generated (HPLC, FIG. 7) ([5]; compounded in polyvinyl chloride (Shore A hardness of 85), processed at 176 °C, 280 nm): less than 1%

SMILES: CCCCCCCCCCCC(=O)O.NC(=NCCCCCCN=C(N)N=C(N)Nc1ccc(Cl)cc1)N=C(N)Nc1ccc(Cl)cc1 [CHDD, chlorhexidine dodecanoate]
- 4.289 peak (CHDD) ([6]; melt temp 132 °C (condition 1)): 100
- RRT 0.6 (degradant) ([6]; melt temp 132 °C (condition 1)): Non-detected
- RRT 1.3 (degradant) ([6]; melt temp 132 °C (condition 1)): Not detected
- RRT 1.6 (degradant) ([6]; melt temp 132 °C (condition 1)): Not detected
- 4.289 peak (CHDD) ([6]; melt temp 136 °C (condition 2)): 100
- RRT 0.6 (degradant) ([6]; melt temp 136 °C (condition 2)): Non-detected
- RRT 1.3 (degradant) ([6]; melt temp 136 °C (condition 2)): Not detected
- RRT 1.6 (degradant) ([6]; melt temp 136 °C (condition 2)): Not detected
- thermal degradation on melt processing (HPLC, FIG. 4) ([6]; compounded in low melt temperature Tecoflex-93A, melt temperature 137 °C, 280 nm): did not degrade
- stable processing temperature limit ([6]; with polyurethanes): at least 136 °C

SMILES: [H]/N=C(\N/C(=N/[H])NCCCCCCNC(=N)NC(=N)Nc1ccc(Cl)cc1)Nc1ccc(Cl)cc1 [chlorhexidine]
- processing temperature at which thermally stable ([4]; with polyolefin thermoplastic elastomers (Versaflex CL30)): up to 161 °C
- processing temperature at which thermally stable ([5]; with vinyl polymers (PVC 60A & 85A)): ≤ 165 °C
